# Tested on: socially defeated mice
# Assay: social defeat (SD) model in the mouse, social interaction with a non-aggressive intruder
# Format: in vivo
# Description: N-acetylaspartylglutamate (NAAG) is the most abundant peptide neurotransmitter in the brain. Glu release is increased during stress. Inhibiting glutamatergic tone by inhibiting NAALADase proves an antidepressant in the social defeat (SD) model. The SD model is a form of conditioned contextual fear, in which once-defeated mice retain a long-lasting over-generalized fear and avoidance of all mice (even non-aggressive ones) and lose normal species-appropriate territorial defense.
# The SD model is a form of conditioned contextual fear, in which once-defeated mice retain a long-lasting over-generalized fear and avoidance of all mice (even non-aggressive ones), losing normal species-appropriate territoriality [Lumley et al., 1999] and displaying immobility in a swim test—a behavior associated with models of depression [Hebert et al., 1998].
# Thus, GPI 5232 increased normal territoriality and other species-appropriate social behavior. In sum, this drug diminished behaviors associated with conditioned contextual fear. It is also believed to reduce depression.
smiles,measurement,setting,value
O=C(O)CCC(CP(=O)(O)Cc1c(F)c(F)c(F)c(F)c1F)C(=O)O (stereo not drawn) [GPI 5232],behaviors associated with conditioned contextual fear,SD model,markedly diminished
same,normal territoriality and other species-appropriate social behavior,SD model,increased
same,display of territorial behavior in the form of runback re-approaches,"acute injection, social interaction with a non-aggressive intruder (FIG. 1)",significantly increased

# Source: patent US20030013635A1, “Method for the treatment of depression by inhibition of NAALADase” (priority 2001, published 2003)
